Test results as given in patent US9670266B2, “Method and composition for crystallizing G protein-coupled receptors” (The Board of Trustees of the Leland Stanford Junior …, priority 2007, dated 2017).
Like-named read-outs stand apart in the source and are kept apart here.

Assays:
[1] = tested on: β2AR-T4L; type: binding
[2] = tested on: β2AR-T4L; conditions: for λmax ± SD for β2AR-T4L: bimane emission, excitation 350 nm, 15 min incubation with saturating ligand; for ligand-induced change of bimane fluorescence / Intensity at λmax Ligand/Intensity at λmax none: β2AR-T4L; for Intensity at λmax Ligand/Intensity at λmax none: 15 min incubation with ligand
[3] = molecular target: wild-type β2AR (Homo sapiens, UniProt P07550); assay: Saturation binding of [^3H]DHA to membranes from Sf9 cells expressing wild-type β2AR
[4] = molecular target: wild-type β2AR (Homo sapiens, UniProt P07550, E27Q/G16R/N187E); assay: as above; conditions: read-out: Kd ± SE
[5] = molecular target: β2AR-T4L (Homo sapiens, UniProt P07550, E27Q/G16R/N187E); assay: Saturation binding of [^3H]DHA to membranes from Sf9 cells expressing β2AR-T4L
Experimental: Membrane preparation from baculovirus-infected Sf9 cells was performed as described previously (G. Swaminath, J. Steenhuis, B. Kobilka, T. W. Lee, Mol Pharmacol 61, 65 (2002)). For each binding reaction, membranes containing 0.7 μg total membrane protein were used. Saturation binding of [^3H]-dihydroalprenolol (DHA) was measured by incubating membranes resuspended in 500 μl binding buffer (75 mM Tris, 12.5 mM MgCl2, 1 mM EDTA, pH 7.4, supplemented with 0.4 mg/ml BSA) with 12 different concentrations of [^3H]DHA (Perkin Elmer) between 20 pM and 10 nM. After 1 h incubation with shaking at 230 rpm, membranes were filtered from the binding reactions with a Brandel harvester, washed with binding buffer, and measured for bound [^3H]DHA with a Beckman LS6000 scintillation counter. […] For competition binding, membranes resuspended in 500 μl binding buffer were incubated with 0.5 nM [^3H]DHA plus increasing concentrations of the competing ligand (all compounds were purchased from Sigma). […] Each data point in the curves in FIGS. 4A and 10 represents the mean of three separate experiments, each done in triplicate. Binding data were analyzed by nonlinear regression analysis using Graphpad Prism.

[6] = molecular target: β2AR Val114^3.33 to alanine mutant (Homo sapiens, UniProt P07550, V114A); conditions: cited from earlier work

CC(C)NC[C@H](O)c1ccc(O)c(O)c1 [(−)-isoproteronol, (−)-isoproterenol]
affinity of β2AR-T4L relative to wild-type β2AR ([1]; competition binding): two to three-fold higher | λmax ± SD for β2AR-T4L [2]: 455 ± 2 nm | ligand-induced change of bimane fluorescence [2]: qualitatively similar decrease in intensity and rightward shift in λmax | Intensity at λmax Ligand/Intensity at λmax none [2]: 0.824 ± 0.006

CCCc1ccccc1OCC(O)CNC(C)C (centres unmarked) [[^3H]DHA, [^3H]-dihydroalprenolol]
Bmax [3]: 30.0 ± 0.5 pmol/mg | Kd [4]: 161 ± 12 pM | affinity of β2AR-T4L relative to wild-type β2AR [5]: wild-type affinity | Bmax ([5]; β2AR-T4L, Sf9 membranes): 21.6 ± 0.5 pmol/mg | Kd ([5]; β2AR-T4L, Sf9 membranes, read-out: Kd ± SE): 180 ± 16 pM

CC(C)(C)NCC(O)c1ccc(O)c(CO)c1 (centres unmarked) [salbutamol]
λmax ± SD for β2AR-T4L [2]: 449 ± 1 nm | ligand-induced change of bimane fluorescence [2]: larger responses in β2AR-T4L than were observed in wild-type β2AR | Intensity at λmax Ligand/Intensity at λmax none [2]: 0.928 ± 0.009

(−)-epinephrine
affinity of β2AR-T4L relative to wild-type β2AR [1]: two to three-fold higher | lowering of β2AR affinity on mutation of Val114^3.33 to alanine [6]: 300 fold
